Results as given in US8778882B2, “Agent for strengthening calcium containing tissue and use thereof” (Hayashibara Co., Ltd., priority 2002, dated 2014).

Tests used:
[1] = system: mouse pre-osteoblastic cell MC3T3-E1; test: Alkaline phosphatase activity in mouse pre-osteoblastic cells; assay type: cell-based
Protocol: To increase number of osteoblastic cells having calcium-deposition activity is important for increasing bone mass. […] The activity is at low level in pre-osteoblastic cells and at high level in osteoblastic cells differentiated form the pre-osteoblastic cells. […] Since final ethanol concentration in the medium is 0.2% (v/v), α-MEM medium containing 0.2% (v/v) ethanol was prepared as a negative control. The cells were inoculated for eight days as changing the medium therewith to fresh medium with or without each sample per three days. Alkaline phosphatase activity was measured using “Alkaline Phospha B-Test Wako” (commercialized by Wako Pure Chemical Industries, Osaka, Japan) according with Kajii et al (Archives of Oral Biology, Vol. 44, pp. 233-241, (1999)). Briefly, to the above described mouse pre-osteoblastic cells washed with 1 ml of 0.25 M sucrose solution three times after removing the medium were added 0.45 ml of 50 mM carbonate salt buffer (pH9.8) containing 1 mM magnesium chloride and 50 mM sucrose and 0.05 ml of 3.4 mM disodium p-nitrophenyl phosphate in due course. The mixture was incubated at 25° C. for five minutes and admixed with 1.5 ml of 0.6N sodium hydroxide as a reaction terminator. Absorbance 405 nm of p-nitrophenol generated by alkaline phosphatase in the resulting mixture was measured, and the obtained values were used as values as alkaline phosphatase activity. […] The experiment was performed by the method according to Experiment 1 except that culture day in the medium containing each sample was three, six or nine, and concentration of each sample was 5, 10 or 20 μM. […] As a negative control, mediums containing ethanol in the above concentration were prepared for calculating relative activity to the activity of each control.

Rat Femur and Tibia = test: Enhancing calcium deposition in rat femur and tibia; assay type: in vivo; conditions: rats fed sample in high sucrose feeding stuff for eight weeks
Protocol: The experiment was performed using six three-weeks-aged female Wister rats per one group. The rats were fed with high sucrose feeding stuff containing ingredients listed Table 11 (In the Table, each value means “weight %”.) and one part by weight of each test sample; hesperetin (commercialized by Funakoshi, Co., Ltd., Tokyo, Japan), quercetin (commercialized by Tokyo Kasei Kogyo, Co., Ltd., Tokyo, Japan), α-glycosyl hesperidin (product name “αG HESPERIDINE”, commercialized by Hayashibara Shoji Inc., Okayama, Japan), α-glycosyl rutin (product name “αG RUTIN P”, commercialized by Hayashibara Shoji Inc., Okayama, Japan), or ipriflavone (commercialized by Daito Corporation, Toyama, Japan) (positive control). As a negative control, rats fed with feedstuff containing one part by weight of sucrose replacing test sample were prepared. The rats were allowed to freely take water. The rats were killed after eight weeks, and then, their femurs and tibias were excised. Each femur or tibia dried at 100° C. for about six hours was measured by electric even balance for high precision analysis (product name “HA180M/12QM”, commercialized by A & D Co, Ltd., Tokyo, Japan), and then, each bone was placed into a crucible and burned in an incinerator at 950° C. for six hours. The cinerary resultant was resolved in hydrochloric solution and provided for measuring calcium amount by atomic absorption photometer. Calcium amount per one dried bone was calculated and compared each other.

Mouse MC3T3-E1 cells = test: Calcium deposition by alizarin red-S staining; assay type: cell-based; design: key: +: same strength of red color as a negative control (only medium containing 0.2% (v/v) ethanol); ++: half strength of the positive control; +++: same strength of red color as a positive control (indomethacin); conditions: MC3T3-E1, 20 mM each compound (so in the source), eight days, alizarin red-S red color judgement
Source text: Following Experiment 1 which investigates differentiating pre-osteoblastic cells into osteoblastic cells, some of organic compounds were investigated whether they actually enhance calcium deposition or not. Indomethacin (commercialized by Funakoshi, Co., Ltd., Tokyo, Japan) (positive control), kaempferol (commercialized by Funakoshi, Co., Ltd., Tokyo, Japan), hesperetin (commercialized by Funakoshi, Co., Ltd., Tokyo, Japan), gallic acid (commercialized by Nacalai Tesque, Kyoto, Japan), and coffeic acid (commercialized by Wako Pure Chemical Industries, Osaka, Japan) were selected as organic compounds. Mouse MC3T3-E1 cells were treated with 20 mM each above compound dissolved in 1 ml of α-MEM medium supplemented with 10% (v/v) fetal calf serum and containing 10 mM β-glycerophosphate. Since final ethanol concentration in the medium is 0.2% (v/v), α-MEM medium containing 0.2% (v/v) ethanol was prepared as a negative control. The cells were inoculated for eight days as changing the medium therewith to fresh medium with or without each sample per three days. The cells were applied to measure calcium deposition therein by usual alizarin red-S staining method. Briefly to the cells washed with 1 ml of Dulbecco phosphate buffer saline twice after removing the medium were added 1 ml of 50 (v/v) % ethanol aqueous solution and incubated for 10 minutes. After removing the 50 (v/v) % ethanol aqueous solution, the cells were incubated with 1 ml of distilled water for 10 minutes. After removing the water, the cells were applied with 1 ml of 1% (w/v) alizarin red-S solution, incubated for 10 minutes, and washed with 1 ml of distilled water for three times after removing alizarin red-S solution. Then, the calcium deposition amount was measured in a manner of judging red color on the plate bottom since deposited calcium was stained by the above treatment. The judgement criterion “+” means same strength of red color as a negative control (only medium containing 0.2% (v/v) ethanol), “+++” means same strength of red color as a positive control (indomethacin), and “++” means half strength of the positive control.

Structure (SMILES): COc1ccc([C@@H]2CC(=O)c3c(O)cc(O)cc3O2)cc1O [Hesperetin]
- enhancement of alkaline phosphatase activity compared with ipriflavone (FIG. 1) ([1]; MC3T3-E1, 5, 10 or 20 μM, day three, six or nine): equally enhances
- Relative Alkaline Phosphatase Activity (%) ([1]; flavonoid comparison, method of Experiment 1, relative to 0.2% (v/v) ethanol negative control): 116%
- Calcium Content Per One Dried Bone (Rat Femur and Tibia; Femur): 125.1 mg
- Dried Bone Mass (Rat Femur and Tibia; Femur): 0.463 g
- Calcium Content Per One Dried Bone (Rat Femur and Tibia; Tibia): 109.0 mg
- Dried Bone Mass (Rat Femur and Tibia; Tibia): 0.357 g
- Calcium Deposition Amount (Mouse MC3T3-E1 cells): +++
